From patent US11109593B2, “Isoxazolin-5-one derivative and herbicide containing same as active ingredient” (HOKKO CHEMICAL INDUSTRY CO., LTD., priority 2017, dated 2021)

What was measured:
Format in all cases: in vivo
[1] = system: Echinochloa crus-galli; assay: Test Example 1: herbicidal effect test by treatment of rice paddy soil (immediately after seeding)
Outline: (§1)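 Application occurs immediately after seeding, with diluted emulsion added to paddy water (about 3 cm deep) over puddled, fertilized soil at 120 g active ingredient per 10 ares. Herbicidal rate is calculated from mean dry weight against untreated controls 14 days later.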

[2] = system: Scirpus juncoides; assay: as above
Outline: as §1

[3] = system: broad leaf weeds (Lindernia pyxidaria and Monochoria vaginalis); assay: as above
Outline: as §1

[4] = system: Echinochloa crus-galli; assay: Test Example 2: herbicidal effect test by treatment during growing period in paddy rice cultivation (seven days after seeding); details: 120 g/10a active ingredient, assessed 14 days after treatment, dry weight vs untreated area
Outline: (§2)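 Post-emergence paddy water application: compounds were formulated as emulsions, diluted and dropped into flooded pots seven days after sowing at a rate equivalent to 120 g per 10 ares. Efficacy was taken as dry-weight reduction relative to untreated controls after 14 days.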

[5] = system: Scirpus juncoides; assay: as above; details: 120 g/10a active ingredient, assessed 14 days after treatment, dry weight vs untreated area
Outline: as §2

[6] = system: broad leaf weeds (Lindernia pyxidaria and Monochoria vaginalis); assay: as above; details: 120 g/10a active ingredient, assessed 14 days after treatment, dry weight vs untreated area
Outline: as §2

[7] = system: Amaranthus viridis; assay: Test Example 3: herbicidal effect test by treatment of dry field farming soil (one day after seeding); details: 120 g/10a active ingredient, evaluated 14 days after treatment
Outline: (§3)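 Dry-field alluvium pots; weed seeds incorporated in top 1 cm; soil spray of diluted emulsion 1 d after seeding, 120 g a.i./10 a in 100 L/10 a. Readout: % reduction of dry weight vs untreated, day 14, duplicates.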

[8] = system: Chenopodium album; assay: as above; details: 120 g/10a active ingredient, evaluated 14 days after treatment
Outline: as §3

[9] = system: Echinochloa crus-galli; assay: as above; details: 120 g/10a active ingredient, evaluated 14 days after treatment
Outline: as §3

[10] = system: southern crabgrass; assay: as above; details: 120 g/10a active ingredient, evaluated 14 days after treatment
Outline: as §3

[11] = system: Amaranthus viridis; assay: Test Example 4: herbicidal effect test by treatment of leave and stem in dry field farming (seven days after seeding); details: 120 g/10a active ingredient; emulsion sprayed seven days after seeding; evaluated 14 days after treatment
Outline: (§4)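 Weeds were seeded at 20 seeds per species into the top 1 cm of alluvial upland soil in pots, then sprayed 7 days after seeding with water-diluted emulsifiable concentrate at 100 L/10 a, giving 120 g active ingredient/10 a. Duplicate pots; herbicidal rate (%) was 14 days post-treatment, from dry weight versus untreated.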

[12] = system: Chenopodium album; assay: as above; details: 120 g/10a active ingredient; emulsion sprayed seven days after seeding; evaluated 14 days after treatment
Outline: as §4

[13] = system: Echinochloa crus-galli; assay: as above; details: 120 g/10a active ingredient; emulsion sprayed seven days after seeding; evaluated 14 days after treatment
Outline: as §4

[14] = system: southern crabgrass; assay: as above; details: 120 g/10a active ingredient; emulsion sprayed seven days after seeding; evaluated 14 days after treatment
Outline: as §4

[15] = 120 g/10a active ingredient, dry weight vs untreated area, 14 days after treatment
[16] = Lindernia pyxidaria, 120 g/10a active ingredient, dry weight vs untreated area, 14 days after treatment
[17] = Monochoria vaginalis, 120 g/10a active ingredient, dry weight vs untreated area, 14 days after treatment
[18] = 120 g/10a active ingredient, 14 days after treatment, dry weight vs untreated area

| SMILES | Herbicidal rate (%) Echinochloa crus-galli [1, 15] | Herbicidal rate (%) Scirpus juncoides [2, 15] | Herbicidal rate (%) Lindernia pyxidaria [3, 16] | Herbicidal rate (%) Monochoria vaginalis [3, 17] | Herbicidal rate (%) Echinochloa crus-galli [4] | Herbicidal rate (%) Scirpus juncoides [5] | Herbicidal rate (%) Lindernia pyxidaria [6] | Herbicidal rate (%) Monochoria vaginalis [6] | herbicidal rate, Amaranthus viridis [7] | herbicidal rate, Chenopodium album [8] | herbicidal rate, Echinochloa crus-galli [9] | herbicidal rate, southern crabgrass [10] | herbicidal effect (herbicidal rate), Amaranthus viridis [11] | herbicidal effect (herbicidal rate), Chenopodium album [12] | herbicidal effect (herbicidal rate), Echinochloa crus-galli [13] | herbicidal effect (herbicidal rate), southern crabgrass [14] | Herbicidal rate (%) Echinochloa crus-galli [1, 18] | Herbicidal rate (%) Scirpus juncoides [2, 18] | Herbicidal rate (%) Lindernia pyxidaria ([3]; Lindernia pyxidaria, 120 g/10a active ingredient, 14 days after treatment, dry weight vs untreated area) | Herbicidal rate (%) Monochoria vaginalis ([3]; Monochoria vaginalis, 120 g/10a active ingredient, 14 days after treatment, dry weight vs untreated area) |
| --- | --- | --- | --- | --- | --- | --- | --- | --- | --- | --- | --- | --- | --- | --- | --- | --- | --- | --- | --- | --- |
| Cc1c(Cc2ccccc2N(C(=O)CC(C)C)S(=O)(=O)C(F)(F)F)c(=O)on1C(C)(C)C [Compound 1-351] | 90% | 90% | 90% | 90% | 90% | 90% | 90% | 90% | 90% | 90% | 90% | 90% | 40% | 40% | 90% | 90% |  |  |  |  |
| CCC(CC)n1oc(=O)c(Cc2ccccc2N(C(=O)C(C)C)S(=O)(=O)C(F)(F)F)c1C [Compound 1-331] | 90% | 90% | 90% | 90% | 90% | 90% | 90% | 90% | 90% | 90% | 90% | 90% | 40% | 40% | 90% | 90% |  |  |  |  |
| Cc1c(Cc2ccccc2N(C(=O)CC(C)C)S(=O)(=O)C(F)(F)F)c(=O)on1CC(C)C [Compound 1-354] | 100% | 90% | 90% | 90% | 100% | 90% | 70% | 90% | 90% | 90% | 90% | 80% | 40% | 40% | 80% | 60% |  |  |  |  |
| Cc1c(Cc2ccccc2N(S(=O)(=O)C(F)(F)F)S(=O)(=O)C(F)(F)F)c(=O)on1C1CCCc2ccccc21 (stereo not drawn) [Compound 1-1050] |  |  |  |  | 90% | 90% | 100% | 90% | 90% | 90% | 100% | 90% | 40% | 50% | 50% | 40% | 100% | 90% | 100% | 100% |
| CSCCn1oc(=O)c(Cc2ccccc2N(C(=O)C2CC2)S(=O)(=O)C(F)(F)F)c1C [Compound 1-413] | 90% | 90% | 90% | 90% | 90% | 90% | 90% | 90% | 90% | 90% | 90% | 90% | 40% | 40% | 90% | 90% |  |  |  |  |
| CSCCn1oc(=O)c(Cc2ccccc2N(C(=O)OCC(C)C)S(=O)(=O)C(F)(F)F)c1C [Compound 1-676] | 90% | 90% | 90% | 90% | 90% | 90% | 90% | 90% | 90% | 90% | 90% | 90% | 40% | 40% | 90% | 90% |  |  |  |  |
| CCC(C)n1oc(=O)c(Cc2ccccc2N(C(=O)OCC(C)C)S(=O)(=O)C(F)(F)F)c1C (stereo not drawn) [Compound 1-669] | 90% | 90% | 90% | 90% | 90% | 90% | 90% | 90% | 90% | 90% | 90% | 90% | 40% | 40% | 90% | 90% |  |  |  |  |
| Cc1c(Cc2ccccc2NS(=O)(=O)C(F)(F)F)c(=O)on1CC1CCCCC1 [Compound 1-146] | 100% | 100% | 100% | 100% | 100% | 90% | 70% | 90% | 90% | 90% | 100% | 100% | 50% | 40% | 80% | 40% |  |  |  |  |
| Cc1c(Cc2ccccc2NS(=O)(=O)C(F)(F)F)c(=O)on1CC(C)(C)C [Compound 1-106] | 90% | 90% | 90% | 90% | 90% | 90% | 90% | 90% | 90% | 90% | 90% | 90% | 40% | 40% | 90% | 90% |  |  |  |  |
